Molecular target: FPR2 (Homo sapiens (Human), UniProt P25090)
Experiment: FLIPR Ca+2 response, HEK-Gα16 cells stably expressing the human FPR2 receptor (Table 4)
Assay type: cell-based
Details: for FPR2 (efficacy): efficacy in parentheses
Procedure: FLIPR: HEK-Gα16 cells stably expressing the human FPR2 receptor was utilized. Cells were plated into 384-well poly-D-lysine coated plates at a density of 18,000 cells per well one day prior to use. The growth media was DMEM medium supplemented with 10% fetal bovine serum (FBS), 1% antibiotic-antimycotic, 50 μg/ml hygromycin, and 400 μg/ml geneticin. On the day of the experiment, the cells were washed twice with Hank's Balanced Salt Solution supplemented with 20 mM HEPES (HBSS/hepes buffer). The cells were then dye loaded with 2 μM Fluo-4 diluted in the HBSS/Hepes buffer and incubated at 37° C. for 40 minutes. Extracellular dye was removed by washing the cell plates four times prior to placing the plates in the FLIPR (Fluorometric Imaging Plate Reader, Molecular Devices). Ligands were diluted in HBSS/Hepes buffer and prepared in 384-well microplates. Data for Ca^+2 responses were obtained in relative fluorescence units.

Chain of FPR2 (P25090 whole entry): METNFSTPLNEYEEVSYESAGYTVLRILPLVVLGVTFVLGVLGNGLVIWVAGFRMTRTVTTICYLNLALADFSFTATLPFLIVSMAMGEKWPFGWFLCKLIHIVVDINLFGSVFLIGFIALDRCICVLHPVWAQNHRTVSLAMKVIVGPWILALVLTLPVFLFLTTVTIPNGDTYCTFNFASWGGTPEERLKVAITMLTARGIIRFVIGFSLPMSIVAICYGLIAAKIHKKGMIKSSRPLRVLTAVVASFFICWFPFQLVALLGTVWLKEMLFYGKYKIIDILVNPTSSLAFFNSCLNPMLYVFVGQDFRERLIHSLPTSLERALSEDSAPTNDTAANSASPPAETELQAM

Compound	EC50	FPR2 (efficacy)
CCC1(C(C)C)NC(=O)N(NC(=O)Nc2ccc(Br)cc2F)C1=O (centres unmarked) [Compound 61, 1-(4-bromo-2-fluorophenyl)-3-[4-2,5-dioxo-4-(propan-2-yl)imidazolidin-1-yl]urea]	9.2 nM	nM (0.97)
N#Cc1ccc(C2Cc3ccc(NC(=O)Nc4ccc(I)cc4)cc3C(=O)N2CCCN)cc1 (centres unmarked) [Compound 43, 1-[2-(3-aminopropyl)-3-(4-cyanophenyl)-1-oxo-1,2,3,4-tetrahydroisoquinolin-7-yl]-3-(4-iodophenyl)urea]	13.7 nM	nM (0.94)
CC1(CCc2ccccc2)NC(=O)N(NC(=O)Nc2ccc(Br)cc2)C1=O (single isomer, unassigned; (+)) [Compound 57]		nM (0.93)
CS(=O)(=O)c1ccc(NC(=O)Nc2ccc3c(c2)C(=O)N(CCc2c[nH]cn2)C(c2ccc(Cl)cn2)C3)cc1 (centres unmarked) [Compound 33, 1-{3-(5-chloropyridin-2-yl)-2-[2-(1H-imidazol-4-yl)ethyl]-1-oxo-1,2,3,4-tetrahydroisoquinolin-7-yl}-3-[4-(methylsulfonyl)phenyl]urea]		nM (0.99)
CC(=O)CNC(=O)[C@H](CC(C)C)NC(=O)Nc1ccc(Br)cc1F [Compound 85, (2S)-2-{[(4-bromo-2-fluorophenyl)carbamoyl]amino}-4-methyl-N-(2-oxopropyl)pentanamide]		nM (0.99)
CCC1(CC)NC(=O)N(NC(=O)Nc2ccc(Br)cc2)C1=O [Compound 49, 1-(4-bromophenyl)-3-(4,4-diethyl-2,5-dioxoimidazolidin-1-yl)urea]	11.5 nM	nM (0.98)
CCOP(=O)(CNC(=O)[C@@H](NC(=O)Nc1ccc(Br)cc1)[C@@H](C)CC)OCC [Compound 114, diethyl ({[(2S,3S)-2-{[(4-bromophenyl)carbamoyl]amino}-3-methylpentanoyl]amino}methyl)phosphonate]	2.9 nM	nM (1.0)
NC(=O)C1C(C(=O)Nc2ccc(I)cc2)C2CCC1C21CC1 (centres unmarked) [Compound 38, N-(4-iodophenyl) spiro[bicyclo[2.2.1]heptane-7,1′-cyclopropane]-2,3-dicarboxamide]	1.9 nM	nM (0.95)
CCC[C@H](NC(=O)[C@H](CC(C)C)NC(=O)Nc1ccc(Br)cc1)C(N)=O [Compound 102, (2S)-N-[(2S)-1-amino-1-oxopentan-2-yl]-2-{[(4-bromophenyl)carbamoyl]amino}-4-methylpentanamide]	7.3 nM	nM (0.99)
CC(C)CC(C)(NC(=O)Nc1ccc(Br)cc1)C(=O)O (centres unmarked) [Compound 110, 2-{[(4-bromophenyl)carbamoyl]amino}-2,4-dimethylpentanoic acid]	19.4 nM	nM (0.98)
CCC[C@H](NC(=O)Nc1ccc(Br)cc1F)C(=O)NCC(N)=O [Compound 81, (2S)-N-(2-amino-2-oxoethyl)-2-{[(4-bromo-2-fluorophenyl)carbamoyl]amino} pentanamide]		nM (0.96)
CS(=O)(=O)c1ccc(NC(=O)Nc2ccc3c(c2)C(=O)N(CCCN)C(c2ccc(C#N)cc2)C3)cc1 (centres unmarked) [Compound 18, 1-[2-(3-aminopropyl)-3-(4-cyanophenyl)-1-oxo-1,2,3,4-tetrahydroisoquinolin-7-yl]-3-[4-(methylsulfonyl)phenyl]urea]		nM (0.86)
CC1(CCc2ccc(O)c(F)c2)NC(=O)N(NC(=O)Nc2ccc(Br)cc2)C1=O (centres unmarked) [Compound 99, 1-(4-bromophenyl)-3-{4-[2-(3-fluoro-4-hydroxyphenyl)ethyl]-4-methyl-2,5-dioxoimidazolidin-1-yl}urea]	8 nM	nM (1.0)
CC(C)=C1C2C=CC1C(C(=O)Nc1ccc(I)cc1)C2C(=O)O (centres unmarked) [Compound 20, 3-[(4-iodophenyl)carbamoyl]-7-(propan-2-ylidene)bicyclo[2.2.1]hept-5-ene-2-carboxylic acid]		nM (0.94)
CSc1ccc(NC(=O)Nc2ccc3c(c2)C(=O)N(CCCN)[C@@H](c2ccc(C#N)cc2)C3)cc1 [Compound 36, (+)1-[(3R)-2-(3-aminopropyl)-3-(4-cyanophenyl)-1-oxo-1,2,3,4-tetrahydroisoquinolin-7-yl]-3-[4-(methylsulfanyl)phenyl]urea]	3.3 nM	nM (0.97)
CC(C)C[C@H](NC(=O)Nc1ccc(Br)cc1)C(=O)NCC(C)(C)O [Compound 93, (2S)-2-{[(4-bromophenyl)carbamoyl]amino}-N-(2-hydroxy-2-methylpropyl)-4-methylpentanamide]	2.5 nM	nM (0.93)
CC[C@H](C)[C@H](NC(=O)Nc1ccc(Br)cc1)C(=O)NCC(N)=O [Compound 60, (2S,3S)-N-(2-amino-2-oxoethyl)-2-{[(4-bromophenyl)carbamoyl]amino}-3-methylpentanamide]		nM (0.91)
CCOP(=O)(CCNC(=O)[C@H](CC(C)C)NC(=O)Nc1ccc(Br)cc1)OCC [Compound 119, diethyl (2-{[(2S)-2-{[(4-bromophenyl)carbamoyl]amino}-4-methylpentanoyl]amino}ethyl) phosphonate]	16.1 nM	
CCC[C@H](NC(=O)Nc1ccc(Br)cc1)C(=O)NCP(=O)(O)OCC [Compound 123, ethyl hydrogen ({[(2S)-2-{[(4-bromophenyl)carbamoyl]amino}pentanoyl]amino}methyl) phosphonate]		nM (0.96)
CC(C)C[C@H](NC(=O)Nc1ccc(Br)cc1)C(=O)NC(CO)CO [Compound 94, (2S)-2-{[(4-bromophenyl)carbamoyl]amino}-N-(1,3-dihydroxypropan-2-yl)-4-methylpentanamide]		nM (0.96)
CC(C)C[C@H](NC(=O)Nc1ccc(Br)cc1)C(=O)NCC(=O)O [Compound 8, {[(2S)-2-{[(4-bromophenyl)carbamoyl]amino}-4-methylpentanoyl]amino}acetic acid]		(0.78)
CCC1(CCc2ccccc2)NC(=O)N(NC(=O)Nc2ccc(Br)cc2F)C1=O (centres unmarked) [Compound 69, 1-(4-bromo-2-fluorophenyl)-3-[4-ethyl-2,5-dioxo-4-(2-phenylethyl)imidazolidin-1-yl]urea]	13.4 nM	nM (0.91)
CC(C)C[C@H](NC(=O)Nc1ccc(Br)cc1)C(=O)NCc1cc(O)no1 [Compound 116, (2S)-2-{[(4-bromophenyl)carbamoyl]amino}-N-[(3-hydroxy-1,2-oxazol-5-yl)methyl]-4-methylpentanamide]		nM (1.0)
CC(=O)CNC(=O)[C@H](CC(C)C)NC(=O)Nc1ccc(Br)cc1 [Compound 78, (2S)-2-{[(4-bromophenyl)carbamoyl]amino}-4-methyl-N-(2-oxopropyl)pentanamide]		nM (0.82)
CSc1ccc(NC(=O)Nc2ccc3c(c2)C(=O)N(CCCN)C(C)C3)cc1 (centres unmarked) [Compound 42, 1-[2-(3-aminopropyl)-3-methyl-1-oxo-1,2,3,4-tetrahydroisoquinolin-7-yl]-3-[4-(methylsulfanyl)phenyl]urea]		nM (1.00)
CCOP(=O)(CNC(=O)[C@H](CC(C)C)NC(=O)Nc1ccc(SC)cc1)OCC [Compound 138, diethyl ({[(2S)-4-methyl-2-({[4-(methylsulfanyl)phenyl]carbamoyl}amino)pentanoyl]amino}methyl)phosphonate]	3.5 nM	nM (0.91)

Reference: US10208071B2, “Use of agonists of formyl peptide receptor 2 for treating ocular inflammatory diseases” (Allergan, Inc., priority 2013, dated 2019)
